Measured values taken from patent publication US20180028436A1, “TOPICAL FORMULATION OF HOPS EXTRACT” (priority 2016, published 2018).

Test system: fibroblast cells of L929 cell line
Test: MTT cytotoxicity assay on fibroblast cells
Format: cell-based
Text: In this example, biocompatibility and toxicity of the topical formulation were studied. At first, cytotoxicity of the hops extract, hops nanoparticles (which were produced according to EXAMPLE 1), and β-cyclodextrin as the carrier were investigated as follows. The cultured fibroblast cells of L929 cell line were exposed to the hops extract, hops nanoparticles, and β-cyclodextrin in three test groups with different concentrations. Three test groups and the control group were studied in a 3-(4,5-dimethylthiazol-2-yl)-2,5-diphenyltetra-zolium bromide (MTT) assay using dimethyl thiazolyl diphenyl tetrazolium salt for evaluating the cell toxicity. FIG. 6A illustrates a MTT plot of the fibroblast cells after about 24 hours of exposing to the hops nanoparticles. Higher absorbance of the MTT dye indicates higher cellular proliferation.

For OC[C@H]1O[C@@H]2O[C@H]3[C@H](O)[C@@H](O)[C@@H](O[C@H]4[C@H](O)[C@@H](O)[C@@H](O[C@H]5[C@H](O)[C@@H](O)[C@@H](O[C@H]6[C@H](O)[C@@H](O)[C@@H](O[C@H]7[C@H](O)[C@@H](O)[C@@H](O[C@H]8[C@H](O)[C@@H](O)[C@@H](O[C@H]1[C@H](O)[C@H]2O)O[C@@H]8CO)O[C@@H]7CO)O[C@@H]6CO)O[C@@H]5CO)O[C@@H]4CO)O[C@@H]3CO [β-cyclodextrin], the “IC50 Value 24 hours” value (L929 fibroblast cells, MTT, 24 hours) was >6000 µg/mL, the “IC50 Value 72 hours” value (L929 fibroblast cells, MTT, 72 hours) was >6000 µg/mL and the cytotoxicity effect (conclusion from IC50 values of TABLE 3) was “no cytotoxicity effect”.
